This is an account of results in ChEMBL document CHEMBL1201862, “PubChem BioAssay data set” (2004).

Active and inactive are the calls of the source. Where only a bound is given, the exact number is not on record here.

Targets include Cytochrome P450 3A4 (Homo sapiens, UniProt P08684); Cytochrome P450 2D6 (Homo sapiens, UniProt P10635); Cytochrome P450 2C9 (Homo sapiens, UniProt P11712).
Assay [1] addresses T1, Polyadenylate-binding protein 1 (Homo sapiens, UniProt P11940). In words: PABP1 MLLE–PAM2 interaction inhibitors, dose response, miRNA deadenylation inhibitor project, biochemical, fluorescence polarization, Cy5-PAM2 peptide, secondary (AID 602260). It is filed as functional. The conditions noted are these: read-out: IC50_Mean.
The target in assay [2] is T1, Polyadenylate-binding protein 1. As to the kind of experiment: PABP1 MLLE–PAM2 binding inhibitor potency, dose response, biochemical, fluorescence polarization, FITC-PAM2 peptide (AID 602259). In kind it is functional. The conditions noted are these: read-out: IC50_Mean.
The next assay has as its target T2, Protein RecA (Mycobacterium tuberculosis, UniProt P9WHJ3).
T2 sequence (P9WHJ3 whole entry): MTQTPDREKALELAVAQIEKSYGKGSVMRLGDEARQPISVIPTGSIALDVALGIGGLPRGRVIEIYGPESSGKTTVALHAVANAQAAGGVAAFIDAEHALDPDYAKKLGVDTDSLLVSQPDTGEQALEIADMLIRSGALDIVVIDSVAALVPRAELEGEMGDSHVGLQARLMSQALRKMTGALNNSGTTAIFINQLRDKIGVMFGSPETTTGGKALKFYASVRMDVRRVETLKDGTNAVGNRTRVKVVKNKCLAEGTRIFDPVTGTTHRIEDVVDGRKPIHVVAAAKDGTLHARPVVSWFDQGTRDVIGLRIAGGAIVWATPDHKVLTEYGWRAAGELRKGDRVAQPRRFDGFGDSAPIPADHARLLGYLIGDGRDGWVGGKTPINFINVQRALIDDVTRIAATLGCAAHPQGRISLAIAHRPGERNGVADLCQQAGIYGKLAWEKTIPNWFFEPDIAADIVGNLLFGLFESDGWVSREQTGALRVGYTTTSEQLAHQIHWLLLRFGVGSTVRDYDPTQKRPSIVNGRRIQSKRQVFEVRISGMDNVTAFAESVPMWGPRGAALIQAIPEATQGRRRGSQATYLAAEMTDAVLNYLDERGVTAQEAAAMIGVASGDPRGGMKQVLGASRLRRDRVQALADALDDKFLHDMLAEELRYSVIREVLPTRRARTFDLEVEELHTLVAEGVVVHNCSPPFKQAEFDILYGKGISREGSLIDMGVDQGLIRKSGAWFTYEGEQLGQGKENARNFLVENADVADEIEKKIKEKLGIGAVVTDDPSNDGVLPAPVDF
In words: Fluorescence Cell-Free Homogeneous Dose Retest to Identify Inhibitors of RecA-Intein Splicing Activity. [Related pubchem assays (depositor defined):AID2097, AID2223, AID489010, AID492950]. In kind it is functional.

In another assay the target is T3, Cytochrome P450 1A2 (Homo sapiens, UniProt P05177).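 Note: PubChem cytochrome P450 panel assay, CYP1A2 panel member.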
T3 sequence (P05177 whole entry): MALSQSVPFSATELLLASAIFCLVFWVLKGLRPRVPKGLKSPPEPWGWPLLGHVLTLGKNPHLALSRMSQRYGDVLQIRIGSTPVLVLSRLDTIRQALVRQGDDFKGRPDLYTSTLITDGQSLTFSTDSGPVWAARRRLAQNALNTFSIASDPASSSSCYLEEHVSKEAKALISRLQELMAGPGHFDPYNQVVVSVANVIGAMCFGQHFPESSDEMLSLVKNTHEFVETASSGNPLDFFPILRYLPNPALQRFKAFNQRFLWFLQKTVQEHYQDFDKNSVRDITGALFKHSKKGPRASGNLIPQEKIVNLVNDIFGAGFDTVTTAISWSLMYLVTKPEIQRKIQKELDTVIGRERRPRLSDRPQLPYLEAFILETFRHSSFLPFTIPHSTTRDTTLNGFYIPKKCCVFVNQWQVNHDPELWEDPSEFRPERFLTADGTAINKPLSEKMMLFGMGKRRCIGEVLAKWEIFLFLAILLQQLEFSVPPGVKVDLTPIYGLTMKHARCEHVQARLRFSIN

For assay [3], the target named is T4, Replicative DNA helicase DnaB (Mycobacterium tuberculosis, UniProt P9WMR3).
T4 sequence (P9WMR3 whole entry): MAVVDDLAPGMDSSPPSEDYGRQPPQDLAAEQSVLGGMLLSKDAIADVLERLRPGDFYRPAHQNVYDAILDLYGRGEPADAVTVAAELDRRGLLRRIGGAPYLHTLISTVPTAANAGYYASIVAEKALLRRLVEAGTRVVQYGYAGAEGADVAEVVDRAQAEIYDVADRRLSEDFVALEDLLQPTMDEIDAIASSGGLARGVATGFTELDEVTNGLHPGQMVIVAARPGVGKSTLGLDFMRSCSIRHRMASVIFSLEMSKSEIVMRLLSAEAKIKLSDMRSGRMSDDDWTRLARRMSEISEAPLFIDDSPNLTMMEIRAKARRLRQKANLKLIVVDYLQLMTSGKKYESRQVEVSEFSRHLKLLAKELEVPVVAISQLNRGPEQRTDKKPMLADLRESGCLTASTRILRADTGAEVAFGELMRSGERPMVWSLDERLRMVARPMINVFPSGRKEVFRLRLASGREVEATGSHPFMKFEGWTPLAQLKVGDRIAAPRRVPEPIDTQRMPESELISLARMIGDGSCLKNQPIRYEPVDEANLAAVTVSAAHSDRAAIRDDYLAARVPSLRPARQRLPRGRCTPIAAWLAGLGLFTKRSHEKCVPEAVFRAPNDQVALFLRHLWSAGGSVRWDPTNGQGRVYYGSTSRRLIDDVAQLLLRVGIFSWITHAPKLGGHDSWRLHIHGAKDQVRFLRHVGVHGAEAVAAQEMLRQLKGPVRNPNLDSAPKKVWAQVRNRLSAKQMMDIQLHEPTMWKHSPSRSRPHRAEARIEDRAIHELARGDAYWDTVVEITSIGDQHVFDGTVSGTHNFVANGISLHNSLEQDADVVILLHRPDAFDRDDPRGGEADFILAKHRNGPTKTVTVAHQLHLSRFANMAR
As to the kind of experiment: DnaB intein splicing inhibitors, dose response, biochemical, cell-free fluorescence (AID 449749). It is filed as functional.

A further assay has as its system H4. In words: Luminescence Cell-Based Dose Response HTS to Identify Activators of 5'UTR Stem-Loop Driven Prion Protein mRNA Translation in H4 Neuroglioblastoma Cells. [Related pubchem assays: 1829 (Project Summary), 1814 (Primary HTS)]. The conditions noted are these: Homo sapiens. In kind it is functional.
A further assay concerns the target Cytochrome P450 2C19 (Homo sapiens, UniProt P33261). In words: Cytochrome panel assay with activity outcomes. Panel member name: p450-cyp2c19 Compounds with AC50 equal or less than 10 uM are considered active. The settings on record: read-out: AC50. In kind it is functional.
Assay [4] is described as follows: Luminescence Cell-Based Dose Response HTS to Identify Inhibitors of 5'UTR Stem-Loop Driven Prion Protein mRNA Translation in H4 Neuroglioblastoma Cells. [Related pubchem assays: 1827 (Project Summary), 1813 (Primary HTS)]. It is filed as functional.
A short description of assay [5]: inhibitors of firefly luciferase expression or activity, dose response, H4 neuroglioma cells, luminescence (AID 1990). In kind it is functional, cell-based.
Assay [6] is described as follows: inhibitors of SNCA 5'UTR-driven reporter translation, confirmation, H4 neuroglioma cells, luminescence (AID 1988). In kind it is functional, cell-based.
The nature of assay [7]: intracellular Trypanosoma cruzi inhibitors in host cells – cell-based, plate reader, cherry-pick samples, set 3, dose response (AID 651818).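 Note: compounds incubated with infected cells for about four days.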 It is filed as functional.

T1 sequence (P11940 whole entry): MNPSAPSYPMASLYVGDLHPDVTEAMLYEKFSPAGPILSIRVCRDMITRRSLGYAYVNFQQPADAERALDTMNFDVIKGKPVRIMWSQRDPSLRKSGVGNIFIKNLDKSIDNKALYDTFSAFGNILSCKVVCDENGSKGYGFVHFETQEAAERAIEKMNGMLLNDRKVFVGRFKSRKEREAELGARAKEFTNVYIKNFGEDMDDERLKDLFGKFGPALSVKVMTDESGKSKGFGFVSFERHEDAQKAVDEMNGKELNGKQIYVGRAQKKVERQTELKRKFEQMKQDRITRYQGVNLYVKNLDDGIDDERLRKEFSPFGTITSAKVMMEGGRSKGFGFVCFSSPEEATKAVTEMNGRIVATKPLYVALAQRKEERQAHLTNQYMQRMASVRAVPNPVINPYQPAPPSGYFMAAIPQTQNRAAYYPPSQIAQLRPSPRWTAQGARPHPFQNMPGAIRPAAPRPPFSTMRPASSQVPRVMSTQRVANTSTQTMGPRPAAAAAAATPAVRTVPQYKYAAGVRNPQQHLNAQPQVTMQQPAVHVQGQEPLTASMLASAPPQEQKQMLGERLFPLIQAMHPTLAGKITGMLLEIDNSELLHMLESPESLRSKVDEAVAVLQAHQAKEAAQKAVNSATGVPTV
Cytochrome P450 2D6, sequence (P10635 whole entry): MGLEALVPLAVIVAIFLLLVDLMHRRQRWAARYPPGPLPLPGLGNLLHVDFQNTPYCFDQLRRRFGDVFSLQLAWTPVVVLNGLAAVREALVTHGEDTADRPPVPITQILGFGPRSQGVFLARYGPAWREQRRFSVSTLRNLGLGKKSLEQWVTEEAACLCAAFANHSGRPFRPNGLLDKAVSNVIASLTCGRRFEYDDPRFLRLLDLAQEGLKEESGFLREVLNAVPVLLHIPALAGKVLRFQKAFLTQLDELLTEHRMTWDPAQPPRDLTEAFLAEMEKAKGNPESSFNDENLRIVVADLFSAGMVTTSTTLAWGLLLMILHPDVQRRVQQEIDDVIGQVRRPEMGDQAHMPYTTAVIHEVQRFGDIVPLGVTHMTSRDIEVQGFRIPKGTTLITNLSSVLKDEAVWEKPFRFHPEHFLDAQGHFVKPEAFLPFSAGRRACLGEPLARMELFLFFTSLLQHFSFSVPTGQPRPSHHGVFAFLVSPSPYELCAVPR
Cytochrome P450 2C9, sequence (P11712 whole entry): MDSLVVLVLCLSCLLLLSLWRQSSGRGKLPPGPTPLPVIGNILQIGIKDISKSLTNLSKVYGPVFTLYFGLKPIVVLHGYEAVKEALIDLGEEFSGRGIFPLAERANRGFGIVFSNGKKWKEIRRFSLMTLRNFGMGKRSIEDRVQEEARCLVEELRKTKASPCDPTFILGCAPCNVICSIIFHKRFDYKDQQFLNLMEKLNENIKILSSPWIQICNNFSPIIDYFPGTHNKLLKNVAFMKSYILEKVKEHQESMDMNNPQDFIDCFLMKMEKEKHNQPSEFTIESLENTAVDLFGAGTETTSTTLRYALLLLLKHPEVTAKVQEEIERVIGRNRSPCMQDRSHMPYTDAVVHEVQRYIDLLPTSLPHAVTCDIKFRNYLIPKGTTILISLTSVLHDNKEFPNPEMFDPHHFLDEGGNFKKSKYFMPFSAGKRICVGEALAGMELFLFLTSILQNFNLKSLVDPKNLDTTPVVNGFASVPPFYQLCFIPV
Cytochrome P450 3A4, sequence (P08684 whole entry): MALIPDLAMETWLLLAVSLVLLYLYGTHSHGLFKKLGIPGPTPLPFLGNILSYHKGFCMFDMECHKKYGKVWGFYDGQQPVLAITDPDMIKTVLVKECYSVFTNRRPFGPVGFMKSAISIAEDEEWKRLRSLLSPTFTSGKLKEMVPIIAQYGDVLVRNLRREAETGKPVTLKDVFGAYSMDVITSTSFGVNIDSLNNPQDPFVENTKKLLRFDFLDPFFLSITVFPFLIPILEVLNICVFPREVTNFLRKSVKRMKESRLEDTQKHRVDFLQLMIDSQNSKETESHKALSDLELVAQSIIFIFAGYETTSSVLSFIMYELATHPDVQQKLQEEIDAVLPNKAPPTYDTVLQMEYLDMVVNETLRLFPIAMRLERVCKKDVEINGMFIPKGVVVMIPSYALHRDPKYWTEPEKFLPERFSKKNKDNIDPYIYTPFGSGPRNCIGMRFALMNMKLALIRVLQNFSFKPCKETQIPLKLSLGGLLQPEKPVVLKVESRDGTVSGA
Cytochrome P450 2C19, sequence (P33261 whole entry): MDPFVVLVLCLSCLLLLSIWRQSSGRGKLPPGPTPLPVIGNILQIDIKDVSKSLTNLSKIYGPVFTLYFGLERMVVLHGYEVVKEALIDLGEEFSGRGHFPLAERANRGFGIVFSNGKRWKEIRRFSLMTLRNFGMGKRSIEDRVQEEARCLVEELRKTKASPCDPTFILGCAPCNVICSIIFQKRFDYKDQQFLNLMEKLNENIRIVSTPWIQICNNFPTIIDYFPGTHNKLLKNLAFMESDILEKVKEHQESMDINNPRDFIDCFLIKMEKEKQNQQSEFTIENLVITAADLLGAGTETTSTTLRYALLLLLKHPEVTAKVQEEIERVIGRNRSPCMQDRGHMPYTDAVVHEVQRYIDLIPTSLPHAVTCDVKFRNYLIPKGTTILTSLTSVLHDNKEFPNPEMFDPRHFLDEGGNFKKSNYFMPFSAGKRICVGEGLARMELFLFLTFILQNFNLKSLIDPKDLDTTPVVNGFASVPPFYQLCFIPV

On to `COc1ccc(-c2csc(NC(=O)CSc3n[nH]c(N)n3)n2)cc1`, for which the IC50 in [1] and in assay [2] was > 66 µM (inactive) throughout.

Consider `CCOC(=O)CC1=C(C(=O)OCC)C(c2ccc(C)o2)C(C#N)=C(N)O1` (stereo not drawn), for which the IC50 in assay [1] was > 66 µM (inactive); in assay [2], 32 µM (inactive).

Turning to `CCCc1n[nH]c2c1C(c1ccncc1)C(C#N)=C(N)O2` (stereo not drawn), the EC50 at Protein RecA was 17.6 µM (active). The AC50 on Cytochrome P450 1A2 is 25.1 µM (inconclusive); at Cytochrome P450 3A4 it was 39.8 µM (inconclusive); in assay [3] it was 45.8 µM (active); on Cytochrome P450 2D6 it was 25.1 µM (inconclusive). Turning to `CC(=O)Nc1ccc(SCC(=O)Nc2ccccc2Oc2ccccc2)cc1`, the IC50 in [1] and in [2] was > 66 µM (inactive) throughout.

On to `Cc1cc(NS(=O)(=O)c2ccc(NC(=S)NC(=O)c3ccc(Br)cc3)cc2)no1`, for which the IC50 in [1] and in [2] was > 66 µM (inactive) in each case. For `Cn1c(-c2ccc(F)cc2)cnc1SCC(=O)Nc1ccccc1N1CCOCC1`, the EC50 in the assay with H4 is 0.244 µM (active).

With `CCC/C=C(\CCC)C(NP(=O)(c1ccccc1)c1ccccc1)c1ccccc1` (stereo not drawn), the AC50 is 15.8 µM (inconclusive) at Cytochrome P450 1A2, 25.1 µM (inconclusive) at Cytochrome P450 2C9, 20 µM (inconclusive) at Cytochrome P450 2C19 and 39.8 µM (inconclusive) on Cytochrome P450 2D6. Consider `O=C(Cc1ccc(-n2c(=O)[nH]c3ccccc3c2=O)cc1)N1CCN(c2cccc(Cl)c2)CC1`, for which the figures for the EC50 in assay [4], in assay [5] and in [6] were 25.3 µM (active), 23 µM (active) and > 120 µM (not active), respectively. The figures for the AC50 on Cytochrome P450 1A2 and at Cytochrome P450 2D6 were 17.8 µM (inconclusive) and 14.1 µM (inconclusive), respectively. As to `O=C(NC(=S)NC1CCSC1=O)c1cccc([N+](=O)[O-])c1` (stereo not drawn), the IC50 in [1] and in assay [2] was > 66 µM (inactive) each time. Turning to `O=c1c(-c2cc(F)cc(F)c2)nc2cnc(N3CCNCC3)nc2n1CCc1ccccc1`, the half-maximal activity concentration (AC50) on Cytochrome P450 1A2 and on Cytochrome P450 2D6 was 20 µM (inconclusive) each time. On to `CC(O)(CS(=O)(=O)Cc1ccc(Cl)cc1)C(=O)Nc1cccc(C(F)(F)F)c1` (stereo not drawn), for which the AC50 is 8.91 µM (inconclusive) at Cytochrome P450 2C9 and 15.8 µM (inconclusive) at Cytochrome P450 2D6. For the compound `O=C(Nc1ccccc1)OCc1cc(-c2ccc(Cl)cc2)on1`, on Cytochrome P450 2D6, the AC50 is 3.16 µM (inconclusive).

`COc1ccc(-n2ccnc(SCC(=O)NC3CCCC3)c2=O)cc1OC`: the IC50 in [1] and in assay [2] was > 66 µM (inactive) each time. For the compound `Cc1ccc(NC(=O)CN2C(=O)S/C(=C/c3ccncc3)C2=O)cc1`, the IC50 in assay [1] and in assay [2] was > 66 µM (inactive) throughout. For the compound `C[C@H](CO)N1C[C@H](C)[C@@H](CN(C)S(=O)(=O)c2ccccc2)Oc2c(NC(=O)Nc3ccccc3)cccc2C1=O`, the AC50 in assay [7] was 20 µM (inactive). On the same count and under the same terms, under `Cc1ccc(S(=O)(=O)Nc2ccc3c(c2)CC(=O)N([C@H](C)CO)C[C@@H](C)[C@@H](CN(C)Cc2ccc(C(=O)Nc4ccccc4N)cc2)O3)cc1` stands 3.25 µM (active); under `C[C@@H]1CN([C@@H](C)CO)C(=O)c2cccc(NC(=O)CCCCCC(=O)Nc3ccccc3N)c2O[C@H]1CN(C)Cc1ccc(Cl)c(Cl)c1`, 3.06 µM (active); under `C[C@@H]1CN([C@@H](C)CO)C(=O)c2cccc(NS(=O)(=O)c3ccc(Cl)cc3)c2O[C@@H]1CN(C)C(=O)Nc1ccc(C(F)(F)F)cc1`, 3.58 µM (active). In the case of `C[C@@H]1CN([C@@H](C)CO)C(=O)c2cccc(NC(=O)Nc3ccccc3)c2O[C@H]1CN(C)Cc1ccc(C(=O)Nc2ccccc2N)cc1`, in assay [7], the AC50 was 0.869 µM (active).

As for `Cc1ccc(S(=O)(=O)Nc2ccc3c(c2)CC(=O)N([C@H](C)CO)C[C@@H](C)[C@@H](CN(C)Cc2ccc(Oc4ccccc4)cc2)O3)cc1`, the AC50 in assay [7] was 2.03 µM (active). On the same count and under the same terms, under `C[C@@H]1CN([C@H](C)CO)C(=O)Cc2cc(NS(=O)(=O)c3ccccc3)ccc2O[C@@H]1CN(C)Cc1ccc(-c2ccccc2)cc1` stands 3.26 µM (active); under `C[C@@H]1CN([C@@H](C)CO)C(=O)c2cccc(NC(=O)CCCCCC(=O)Nc3ccccc3N)c2O[C@@H]1CN(C)Cc1ccc(Oc2ccccc2)cc1`, 2.17 µM (active); under `Cc1ccc(S(=O)(=O)N(C)C[C@H]2Oc3c(NC(=O)CCCCCC(=O)Nc4ccccc4N)cccc3C(=O)N([C@H](C)CO)C[C@@H]2C)cc1`, 1.42 µM (active). `C[C@@H]1CN([C@@H](C)CO)C(=O)c2cccc(N(C)C)c2O[C@@H]1CN(C)Cc1ccc(Oc2ccccc2)cc1`: the AC50 in assay [7] was 6.65 µM (active). Same read-out and setting: the value for `C[C@@H]1CN([C@@H](C)CO)C(=O)c2cccc(NC(=O)Nc3ccccc3)c2O[C@@H]1CN(C)S(=O)(=O)c1cccs1` was 14.8 µM (active); that for `C[C@H]1CN([C@@H](C)CO)C(=O)c2cc(NC(=O)Nc3cccc4ccccc34)ccc2O[C@H]1CN(C)Cc1ccc(-c2ccccc2)cc1` was 5.22 µM (active); that for `C[C@H]1CN([C@@H](C)CO)C(=O)Cc2cc(N(C)C)ccc2O[C@@H]1CN(C)Cc1ccc(-c2ccccc2)cc1` was 2.21 µM (active).

Take `C[C@@H]1CN([C@@H](C)CO)C(=O)Cc2cc(NC(=O)Cc3ccccc3)ccc2O[C@@H]1CN(C)Cc1ccc(C(=O)Nc2ccccc2N)cc1`: the half-maximal activity concentration (AC50) in assay [7] is 3.09 µM (active).
